In US5914242A, “Method for diminishing myocardial infarction using protein phosphatase inhibitors” (priority 1997, dated 1999):
Entries after “also recorded” stand apart in the source; their conditions may differ.

How the values were obtained:
[1] = tested on: alkaline protein phosphatase; assay: Effect on alkaline protein phosphatase; format: biochemical
[2] = tested on: protein phosphatase type 1 (PP1); assay: Protein phosphatase inhibition assay, purified catalytic subunit, [32P]-phosphohistone or phosphorylase a substrate; format: biochemical
Procedure: (§1) FIG. 4: Effect of fostriecin on the activity of protein phosphatase type 1 (PP1) and protein phosphatase type 2A (PP2A). The activity of the purified catalytic subunits of PP1 (Δ,s) or PP2A (O,1) was assayed in the presence of the indicated amount of fostriecin. The inhibition assays employed freshly prepared [^32 P]-phosphohistone (open symbols) or [^32 P]phosphorylase A (filled symbols) as substrate and highly purified catalytic subunits of PP1 or PP2A. Assays were conducted in a total volume of 80 μl, and the indicated amount of fostriecin was added to the assay 10 minutes prior to initiation of the reaction by the addition of substrate. Each point represents the mean ± SE (n>6).
(§2) Determination of protein phosphatase activity: Protein phosphatase activity against phosphohistone was determined by the quantification of liberated [^32 P] from phosphohistone according to previously established methods (see Honkanen et al., J. Biol. Chem. 265:19401-04 (1990); Honkanen et al., Mol. Pharmacol. 40:577-83 (1991); and Critz and Honkanen, Neuroprotocols 6:78-83 (1995)). Assays (80 μl final volume) were conducted in 50 mM Tris-buffer (pH 7.4) containing 0.5 mM DTT, 4 mM EDTA, and phosphoprotein (2 μM PO4). The assay was initiated by the addition of substrate (30 μl) to a 1.5 ml microfuge tube containing 50 μl of dilute homogenate. Assays were conducted at 30° C. for 10 minutes and were stopped by the addition of 100 μl of 1N H2 SO4 containing 1 mM K2 HPO4. [^32 P]Phosphate liberated by the enzyme was then extracted as a phosphomolybdate complex and measured according to the methods of Killilea et al., Arch. Biochem. Biophys. 191:638-46 (1978)). Briefly, free phosphate was extracted by adding 20 μl of ammonium molybdate (7.5% w/v in 1.4 N H2 SO4) and 250 μl of isobutanol:benzine (1:1, v/v) to each tube. The tubes were mixed vigorously for approximately 10 seconds followed by centrifugation at 14,000×g for 2 minutes. Aliquots of the upper phase (100 μl) were removed for counting, and radioactivity was quantified with a scintillation counter.
(§3) For inhibition studies, the indicated amount of fostriecin or okadaic acid was added to the enzyme mixture 10 minutes before the reaction was initiated with the addition of substrate. Controls received solvent alone, and in all experiments the amount of enzyme was diluted to ensure that the samples were below the titration endpoint. The titration endpoint is defined as the concentration of enzyme after which further dilution no longer affects the IC50 of the toxin, and represents a point where the concentration of enzyme used in the assay no longer approaches that of the toxin. This ensures that IC50 represents the potency of the inhibitor alone and is not representative of a combination of potency of the toxin and titration artifacts of the assay system. Preliminary assays were also performed to ensure the dephosphorylation reaction was linear with respect to enzyme concentration and time.
(§4) The catalytic subunit of PP2A was purified to apparent homogeneity according to established methods as described by Pallas et al., Cell 60:167-176 (1990) using G-75 Sephadex in the place of Ultrogel-AcA44 as previously reported in Brautigan et al., J. Biol. Chem. 260:4295-02 and Honkanen et al., Mol. Pharmacol 40:577-83 (1991). PP1 and PP2A both are now also available from several commercial sources.

[3] = tested on: protein phosphatase type 2A (PP2A); assay: as above; format: biochemical
Procedure: as §1, §2, §3, §4

PP1/PP2A-chimera (CRHM2) = assay: Inhibition of recombinant PP1/PP2A chimera; format: biochemical, human PP1 / bovine PP2A
Procedure: FIG. 6: Sequence of a PP1/PP2A chimera. To characterize the fostriecin binding site, the N-terminal region of PP1 was ligated to the C-terminal region of PP2A (in bold) to produce a PP1/PP2A-chimera (CRHM2). Previous studies indicate that the okadaic acid binding domain is contained in the C-terminal region of PP2A that was incorporated into CRHM2.
FIG. 7: Effect of fostriecin and okadaic acid on the activity of recombinant CRHM2. CRHM2 activity was assayed in the presence of the indicated amount of fostriecin (FIG. 7A) or okadaic acid (FIG. 7B). […] Assays were conducted as described in FIG. 5. Each point represents the mean ± SE (n>6).
PP1, an enzyme highly homologous to PP2A, could be expressed in a stable manner and in relatively large amounts. Thus, human PP1 was cloned and subcloned into a bacterial expression vector as was done for PP2A. […] To create a hybrid enzyme (a PP1/PP2A chimera) that could be expressed stably like rPP1 but would bind okadaic acid with high affinity like PP2A, a number of mutant forms of PP1 and PP2A were constructed. Then, through mutational analysis, the okadaic acid binding domain of PP2A was identified. The okadaic acid binding domain from PP2A was cloned behind the amino terminal domain of PP1. The hybrid, referred to as CRHM-2, was subcloned into an expression vector. Restriction analysis of CRHM-2 confirmed the identity of the construct.
In these studies, the bacterial expressed PP1/PP2A hybrid enzyme was produced by growing appropriate strains of transformed E. coli at 18° C. for 48 hours in LB-media containing 50 μg/ml ampicillin, 1 mM MnCl2, and 50 μM IPTG. The bacteria were lysed with a French Press, and after centrifugation at 15,000×g for 45 min, the phosphatase was partially purified via ion-exchange [High Q (BioRad) and MonoQ (Pharmacia)] and affinity [Heparin-Sepharose (Pharmacia)] chromatography. The sensitivity of the chimera to fostriecin was determined employing the same protein phosphatase assay employed with endogenous PP1 or PP2A, with the addition of MnCl2 (1 mM) to the assay buffer.

[4] = tested on: divalent cation-independent serine/threonine protein phosphatase activity; assay: Divalent cation-independent phosphatase activity in dilute whole cell homogenate of rabbit ventricle; format: biochemical; conditions: crude whole cell homogenate, [32P]-phosphohistone
Procedure: FIG. 5: Effect of fostriecin on the divalent cation-independent phosphatase activity contained in a dilute, whole cell homogenate of rabbit ventricle. Dilute homogenates of rabbit ventricle biopsies were assayed in the presence of the indicated amount of fostriecin. […] Assays were conducted in a total volume of 80 μl, and the indicated amount of fostriecin was added to the assay 10 minutes prior to initiation of the reaction by the addition of substrate. Each point represents the mean ± SE (n>6).
Determination of protein phosphatase activity: Protein phosphatase activity against phosphohistone was determined by the quantification of liberated [^32 P] from phosphohistone according to previously established methods (see Honkanen et al., J. Biol. Chem. 265:19401-04 (1990); Honkanen et al., Mol. Pharmacol. 40:577-83 (1991); and Critz and Honkanen, Neuroprotocols 6:78-83 (1995)). Assays (80 μl final volume) were conducted in 50 mM Tris-buffer (pH 7.4) containing 0.5 mM DTT, 4 mM EDTA, and phosphoprotein (2 μM PO4). […] [^32 P]Phosphate liberated by the enzyme was then extracted as a phosphomolybdate complex and measured according to the methods of Killilea et al., Arch. […] Aliquots of the upper phase (100 μl) were removed for counting, and radioactivity was quantified with a scintillation counter. […]

[5] = phosphohistone and phosphorylase-a substrates

CC(O)(/C=C/C1CC=CC(=O)O1)C(CC(O)\C=C/C=C\C=C\CO)OP(=O)(O)O (stereo not drawn) [fostriecin]
effect on alkaline protein phosphatase [1]: no effect | effect on PP1 at the protective concentration ([2]; 1-10 μM fostriecin): no direct effect; also recorded: minor effect | inhibition of PP1 catalytic subunit [2, 5]: inhibited by fostriecin in a dose-dependent manner | inhibition of PP2A at the protective concentration ([3]; 1-10 μM fostriecin): inhibits the activity of PP2A; also recorded: inhibits PP2A completely | inhibition of PP2A catalytic subunit [3, 5]: inhibited by fostriecin in a dose-dependent manner | concentration inhibiting PP2A relative to PP1 ([3]; purified catalytic subunits): at a lower concentration than PP1 | sensitivity / potency of inhibition of the chimera (PP1/PP2A-chimera (CRHM2); [32P]-phosphohistone, 1 mM MnCl2 in assay buffer): sensitive | binding affinity to the recombinant hybrid enzyme (PP1/PP2A-chimera (CRHM2); enzyme printed as rPP2Ac-1): affinity comparable to that of PP1 | inhibition of phosphatase activity in rabbit heart ventricle homogenate [4]: inhibits
